Experimental data: ChEMBL document CHEMBL1201862, “PubChem BioAssay data set” (2004)
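How tested: cells in 96-well plates exposed to compound for 48 hours at five concentrations. GI50: concentration for 50% inhibition of growth.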 The source made the active and inactive calls. Rule as the data show it: active = GI50 up to about 1.1 µM and inactive = higher.

What was measured:
Experiment in all cases: DTP human tumour cell line panel, 48 h
SNB-75 = system: SNB-75
A549 = system: A549
LOX IMVI = system: LOX IMVI
OVCAR-4 = system: OVCAR-4
OVCAR-3 = system: OVCAR-3
U-251 = system: U-251
Malme-3M = system: Malme-3M
HOP-92 = system: HOP-92
SNB-19 = system: SNB-19
PC-3 = system: PC-3
OVCAR-8 = system: OVCAR-8
COLO 205 = system: COLO 205
NCI-H460 = system: NCI-H460
SF-295 = system: SF-295
RPMI-8226 = system: RPMI-8226
HT-29 = system: HT-29
IGROV-1 = system: IGROV-1
786-0 = system: 786-0
NCI-H23 = system: NCI-H23

SMILES	GI50 (SNB-75)	GI50 (A549)	GI50 (LOX IMVI)	GI50 (OVCAR-4)	GI50 (OVCAR-3)	GI50 (U-251)	GI50 (Malme-3M)	GI50 (HOP-92)	GI50 (SNB-19)	GI50 (PC-3)	GI50 (OVCAR-8)	GI50 (COLO 205)	GI50 (NCI-H460)	GI50 (SF-295)	GI50 (RPMI-8226)	GI50 (HT-29)	GI50 (IGROV-1)	GI50 (786-0)	GI50 (NCI-H23)
CC(C)C(O)(C(C)C)C(C)C	> 100 µM (inactive)	> 100 µM (inactive)	> 100 µM (inactive)	> 100 µM (inactive)	> 100 µM (inactive)	> 100 µM (inactive)	> 100 µM (inactive)	> 100 µM (inactive)	> 100 µM (inactive)	> 100 µM (inactive)	> 100 µM (inactive)	> 100 µM (inactive)	> 100 µM (inactive)	> 100 µM (inactive)	> 100 µM (inactive)	> 100 µM (inactive)	> 100 µM (inactive)	> 100 µM (inactive)	> 100 µM (inactive)
CCOC(=O)c1c(OCC)[nH]c(=O)c(C(c2cccs2)c2c(O)c(C(=O)OCC)c(OCC)[nH]c2=O)c1O	0.082 µM (active)	14.5 µM (inactive)	12.6 µM (inactive)	17.6 µM (inactive)	11.6 µM (inactive)	12.4 µM (inactive)	8.36 µM (inactive)	9.42 µM (inactive)	11.4 µM (inactive)	18.2 µM (inactive)	12.6 µM (inactive)	17.3 µM (inactive)	13.3 µM (inactive)	12 µM (inactive)	12.1 µM (inactive)	16.1 µM (inactive)	13.9 µM (inactive)	12.1 µM (inactive)	21.4 µM (inactive)
CC(C)CCNC(=O)c1ccc(CNC(=O)/C=C/c2csc(-c3ccccc3)n2)cc1	14.4 µM (inactive)	40.1 µM (inactive)	> 100 µM (inactive)	14.5 µM (inactive)	> 100 µM (inactive)	29.4 µM (inactive)	29.9 µM (inactive)	27.7 µM (inactive)	17.8 µM (inactive)	> 100 µM (inactive)	25.8 µM (inactive)	> 100 µM (inactive)	> 100 µM (inactive)	33.9 µM (inactive)	> 100 µM (inactive)	31.1 µM (inactive)	34.2 µM (inactive)	32.7 µM (inactive)	> 100 µM (inactive)
Cc1ccc(S(=O)(=O)NNC(=O)c2cc(C)c(C)cc2N)cc1	> 100 µM (inactive)	–	> 100 µM (inactive)	> 100 µM (inactive)	94.2 µM (inactive)	> 100 µM (inactive)	> 100 µM (inactive)	> 100 µM (inactive)	> 100 µM (inactive)	> 100 µM (inactive)	60.4 µM (inactive)	> 100 µM (inactive)	> 100 µM (inactive)	> 100 µM (inactive)	> 100 µM (inactive)	> 100 µM (inactive)	> 100 µM (inactive)	> 100 µM (inactive)	> 100 µM (inactive)
Cc1cc(S(=O)(=O)Nc2nc3ccccc3n2-c2ccccc2)c(S)cc1Cl	> 100 µM (inactive)	> 100 µM (inactive)	> 100 µM (inactive)	> 100 µM (inactive)	> 100 µM (inactive)	> 100 µM (inactive)	> 100 µM (inactive)	> 100 µM (inactive)	82.2 µM (inactive)	> 100 µM (inactive)	> 100 µM (inactive)	> 100 µM (inactive)	56.5 µM (inactive)	44.4 µM (inactive)	> 100 µM (inactive)	–	> 100 µM (inactive)	> 100 µM (inactive)	–
C=C1C(=O)O[C@@H]2C[C@@]3(C)CC(=O)C=C(C)[C@@H]3C[C@H]12	16.1 µM (inactive)	29.6 µM (inactive)	13.9 µM (inactive)	9.1 µM (inactive)	6.15 µM (inactive)	15.5 µM (inactive)	5.98 µM (inactive)	16.3 µM (inactive)	17.3 µM (inactive)	18.2 µM (inactive)	15 µM (inactive)	3.37 µM (inactive)	–	33.1 µM (inactive)	2.12 µM (inactive)	6.14 µM (inactive)	13.3 µM (inactive)	12.4 µM (inactive)	13.8 µM (inactive)
C/C(=N\Nc1nc2ccccc2n1C)c1cnccn1	5.13 µM (inactive)	0.218 µM (active)	0.129 µM (active)	0.0504 µM (active)	0.0326 µM (active)	0.339 µM (active)	0.065 µM (active)	0.227 µM (active)	2.73 µM (inactive)	0.0426 µM (active)	0.0615 µM (active)	< 0.0139 µM (active)	0.223 µM (active)	0.367 µM (active)	< 0.0297 µM (active)	0.0418 µM (active)	0.0435 µM (active)	0.0671 µM (active)	0.105 µM (active)
N#C/C(=C\n1ccc(=O)[nH]c1=S)C(N)=O	> 100 µM (inactive)	> 100 µM (inactive)	> 100 µM (inactive)	> 100 µM (inactive)	< 0.01 µM (active)	> 100 µM (inactive)	> 100 µM (inactive)	73.6 µM (inactive)	> 100 µM (inactive)	> 100 µM (inactive)	> 100 µM (inactive)	> 100 µM (inactive)	> 100 µM (inactive)	> 100 µM (inactive)	> 100 µM (inactive)	> 100 µM (inactive)	> 100 µM (inactive)	> 100 µM (inactive)	> 100 µM (inactive)
CCOc1ccc(/C=N/[N+](C)(C)C)cc1OCC	> 10 µM (inactive)	> 10 µM (inactive)	> 10 µM (inactive)	> 10 µM (inactive)	> 10 µM (inactive)	> 10 µM (inactive)	> 10 µM (inactive)	> 10 µM (inactive)	> 10 µM (inactive)	> 10 µM (inactive)	> 10 µM (inactive)	> 10 µM (inactive)	–	> 10 µM (inactive)	> 10 µM (inactive)	> 10 µM (inactive)	> 10 µM (inactive)	> 10 µM (inactive)	> 10 µM (inactive)
CC(=O)O[C@H]1CC[C@H]2[C@@H]3CCC4=C(C(=O)C=CC4(C)OC(C)=O)[C@H]3CC[C@]12C (stereo partly specified)	45 µM (inactive)	90.2 µM (inactive)	38.1 µM (inactive)	> 100 µM (inactive)	47.6 µM (inactive)	82.6 µM (inactive)	> 100 µM (inactive)	63.2 µM (inactive)	> 100 µM (inactive)	48 µM (inactive)	39.5 µM (inactive)	–	42.3 µM (inactive)	98.4 µM (inactive)	38.3 µM (inactive)	46.6 µM (inactive)	> 100 µM (inactive)	86.7 µM (inactive)	35.8 µM (inactive)
C=C=C(CC(CC(=C)Br)(C(=O)OC)C(=O)OC)S(=O)(=O)c1ccccc1	6.22 µM (inactive)	2.78 µM (inactive)	0.419 µM (active)	8.89 µM (inactive)	2.27 µM (inactive)	1.5 µM (inactive)	1.91 µM (inactive)	1.95 µM (inactive)	12.2 µM (inactive)	1.73 µM (inactive)	1.29 µM (inactive)	1.84 µM (inactive)	5.86 µM (inactive)	13.4 µM (inactive)	1.85 µM (inactive)	1.62 µM (inactive)	1.66 µM (inactive)	1.05 µM (active)	2.05 µM (inactive)
O=[N+]([O-])C[C@@]12O[C@]3(O)C4C5CC(C6C5C3C61)C42 (stereo partly specified)	> 100 µM (inactive)	> 100 µM (inactive)	> 100 µM (inactive)	> 100 µM (inactive)	> 100 µM (inactive)	> 100 µM (inactive)	> 100 µM (inactive)	> 100 µM (inactive)	> 100 µM (inactive)	> 100 µM (inactive)	> 100 µM (inactive)	> 100 µM (inactive)	> 100 µM (inactive)	> 100 µM (inactive)	> 100 µM (inactive)	> 100 µM (inactive)	> 100 µM (inactive)	> 100 µM (inactive)	> 100 µM (inactive)
CN(C)CCCNC(=O)c1c(O)c2ccccc2[nH]c1=O	> 100 µM (inactive)	> 100 µM (inactive)	> 100 µM (inactive)	> 100 µM (inactive)	> 100 µM (inactive)	–	> 100 µM (inactive)	38.4 µM (inactive)	–	> 100 µM (inactive)	> 100 µM (inactive)	41.1 µM (inactive)	> 100 µM (inactive)	22.9 µM (inactive)	> 100 µM (inactive)	> 100 µM (inactive)	42 µM (inactive)	> 100 µM (inactive)	> 100 µM (inactive)
COC1CC2CCC(C)[C@](O)(O2)C(=O)C(=O)N2CCCCC2C(=O)OC(C(C)CC2CCC(O)C(OC)C2)CC(=O)C(C)C=C(C)C(OC(=O)CN(C)C)C(OC)C(=O)C(C)CC(C)/C=C/C=C/C=C\1C (stereo partly specified)	< 0.01 µM (active)	11 µM (inactive)	< 0.01 µM (active)	< 0.01 µM (active)	9.79 µM (inactive)	< 0.01 µM (active)	< 0.01 µM (active)	< 0.01 µM (active)	< 0.01 µM (active)	< 0.01 µM (active)	0.403 µM (active)	11.3 µM (inactive)	6.22 µM (inactive)	< 0.01 µM (active)	< 0.01 µM (active)	3.81 µM (inactive)	–	10.8 µM (inactive)	10.9 µM (inactive)
N#Cc1nc(C2CCC2)oc1N	> 100 µM (inactive)	> 100 µM (inactive)	> 100 µM (inactive)	> 100 µM (inactive)	> 100 µM (inactive)	> 100 µM (inactive)	> 100 µM (inactive)	> 100 µM (inactive)	> 100 µM (inactive)	> 100 µM (inactive)	> 100 µM (inactive)	> 100 µM (inactive)	> 100 µM (inactive)	> 100 µM (inactive)	> 100 µM (inactive)	> 100 µM (inactive)	> 100 µM (inactive)	> 100 µM (inactive)	> 100 µM (inactive)
